Measured values reported in US20210220331A1, “INHIBITORS OF IRES-MEDIATED PROTEIN SYNTHESIS” (The Regents of the University of California, priority 2016, published 2021).

Molecular target: T1, hnRNP A1 binding to cyclin D1 or c-MYC IRES RNAs (Homo sapiens, UniProt P09651)
T1 construct: endogenous in cells; host or cells: LN229 glioblastoma cells; 293T cells
Test: RNA-pull down assay with biotinylated cyclin D1 or c-MYC IRES RNAs
Assay type: cell-based
Experimental: For immunopurification of eIF4E and bound RNA (21), cells were lysed in buffer containing 50 mM Tris-HCl (pH 7.4), 300 mM NaCl, 0.5% NP-40, 10 mM NaF, 1 mM sodium orthovanidate, 1 mM PMSF, 1.5% aprotinin and SUPERase-IN (ThermoFisher Scientific), 0.025 units/ml, using a Dounce homogenizer at 4° C. Extracts were cleared by centrifugation and immunoprecipitated with eIF4E or control IgG. Beads were washed and obtained RNA was subjected to quantitative RTPCR. For quantitative RT-PCR, extraction of RNA was performed using Trizol (ThermoFisher). Total RNA was then quantified and integrity assessed using an Agilent 2100 Bioanalyzer (Agilent Technology). Total RNA was reverse transcribed with random primers using the RETROscript Kit from ThermoFisher. SYBR Green quantitative PCR was performed in triplicate in 96-well optical plates on an ABI Prism 7000 Sequence Detection System (Life Technologies) according to the manufacturer's instructions. Primer sequences for CCND1, c-MYC and actin are available upon request. […]
(B) Schematic diagrams of the dicistronic constructs used in this study. […] Input and bound fractions were analyzed by immunoblotting using hnRNP A1 antibodies. […] Bound CCND1 or c-MYC RNAs were detected via RT-PCR. […]

T1 sequence (P09651 whole entry): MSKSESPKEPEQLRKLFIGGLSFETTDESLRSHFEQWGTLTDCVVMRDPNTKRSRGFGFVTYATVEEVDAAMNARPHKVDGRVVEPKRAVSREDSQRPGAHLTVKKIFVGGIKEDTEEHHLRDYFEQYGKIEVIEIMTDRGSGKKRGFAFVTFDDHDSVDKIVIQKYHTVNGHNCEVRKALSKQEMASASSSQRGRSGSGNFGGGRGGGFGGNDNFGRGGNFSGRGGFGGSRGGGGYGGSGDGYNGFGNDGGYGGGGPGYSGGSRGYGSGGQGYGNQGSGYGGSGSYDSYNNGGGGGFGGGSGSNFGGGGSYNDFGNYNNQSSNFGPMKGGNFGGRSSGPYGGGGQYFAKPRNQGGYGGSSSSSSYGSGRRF

Compound | hnRNP A1 binding to cyclin D1 or c-MYC IRES RNAs (extracts of LN229 cells treated with 50 nM) | ability to block cyclin D1 or c-MYC IRES-hnRNP A1 interactions relative to C11 (293T cell extracts)
COc1ccc(CN2C(=O)C(Cl)=C(Cl)C2=O)c(OC)c1 [Compound C11, reference compound] | markedly reduced hnRNP A1 binding | 
COc1ccc(CN2C(=O)c3ccccc3C2=O)c(OC)c1 [IRES-J007, 2-((2,4-Dimethoxyphenyl)methyl)isoindoline-1,3-dione] |  | improved ability
